These results are taken from the supplement of paper PMC10307832.

Compound in this test: CCCS(=O)(=O)Nc1ccc(F)c(C(=O)c2c[nH]c3ncc(-c4ccc(Cl)cc4)cc23)c1F [Vemurafenib]
Briefly: relative viability (nuclei count vs DMSO), 5 days (fraction); higher = more cells survive. The gist of the method:
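After an overnight hold at 37 °C, lung cancer cell lines in 1536-well plates were pinned with five library-drug doses (not always all listed), each √10 from the next, on vehicle-anchored plates. The cells stayed 5 days without fresh medium, then a one-step fix, permeabilisation and Hoechst stain preceded 4× imaging and MetaXpress nuclear counts. A plate passed only with control CV under 25% and at least one doubling. Viability is the median, over plates, of treated-well nuclei relative to vehicle-well nuclei.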

As to UMC-11, the relative viability was 0.923 (0.03162 µM), 1.02 (0.1 µM), 0.876 (0.3162 µM) and 0.777 (1 µM).
